Reference: US20230192650A1, “NOVEL ACID SECRETION INHIBITOR AND USE THEREOF” (Ildong Pharmaceutical Co., Ltd., priority 2020, published 2023)
Read-outs that look alike come from different tables or passages of the source.

Tests used:
[1] = test system: indomethacin-induced gastric damage; assay: Gastric damage inhibitory efficacy in rat of indomethacin-induced gastric damage; format: in vivo; settings: SD rats, 10 mg/kg oral 1 hour before indomethacin, 5 hours
Method: The experiment was performed as follows to evaluate the gastric ulcer inhibitory efficacy of the Example compound in rat models of gastric damage induced by indomethacin, a drug in the NSAID classes.
Among fasted male Sprague Dawley rats, the control group was orally administered with 0.5% methylcellulose solution, and the other groups were orally administered with the Example compound at a dose of 10 mg/10 mL/kg suspended in 0.5% methylcellulose solution.
In 1 hour after oral administration of the Example compound, indomethacin was orally administered, and after 5 hours, the test animals were sacrificed and the stomach was enucleated. After washing the enucleated surface of the stomach, the greater curvature of the stomach was incised. The incised stomach was spread out and fixed. Then, the ratio of the gastric damaged area was obtained by the total gastric area and the damaged area on the gastric mucosa surface using ImageJ software (NIH, Bethesda), and the % inhibitory activity of the Example compound was calculated according to the following Equation 3.
% inhibitory activity of Example compound=[(ratio of gastric damaged area in control group−ratio of gastric damaged area in group treated with Example compound)/(ratio of gastric damaged area in control group)]×100 [Equation 3]

[2] = target: T1, proton pump (H+/K+-ATPase) (Sus scrofa, UniProt P19156); assay: Inhibitory activity on proton pump (H+/K+-ATPase), malachite green assay; format: biochemical; settings: pig gastric vesicles, pH 6.5
T1 construct: Gastric vesicles isolated from pig stomach were prepared according to the document; from tissue; host or cells: pig stomach (gastric vesicles)
Method: (§1) The proton pump (H+/K+-ATPase) inhibitory activity of the prepared compound was measured as follows. Gastric vesicles isolated from pig stomach were prepared according to the document (see Methods Mol Biol. 2016; 1377:19-27). The protein contents of the gastric vesicles were quantified with a Bicinchoninic Acid (BCA) kit (Sigma Aldrich, BCA1). To each well of a 96-well plate, 70 μl of 50 mM Tris-HEPES buffer (pH 6.5) containing 125 ng of vesicles, DMSO or a substance for each concentration (final DMSO concentration of 1%), 5 mM MgCl2, and 10 mM KCl was added and pre-incubated at 37° C. for 30 minutes. Then, 10 μl of 2 mM ATP was added to each well, followed by enzymatic reaction at 37° C. for 40 minutes. The reaction was stopped by adding 20 μl of malachite green reagent (Sigma Aldrich, MAK307) and the resulting mixture was allowed to stand at room temperature for 30 minutes. By measuring the absorbance at 620 nm using a Microplate Reader (Biotek, Synergy H4), an amount of inorganic phosphorus released from ATP degradation was measured and the enzyme activity was measured. The absorbance of the enzyme-reacted sample without adding KCl was measured, and the measurement value was subtracted from all the above measurements. Assuming that the group treated with 1% DMSO (DMSO control group) was 100% H^+/K^+-ATPase enzyme activity, and that the group without KCl (KCl control group) was 0% H^+/K^+-ATPase enzyme activity, % inhibition was calculated as in the following Equation 1:
% inhibition=[1−(ODtreatment group−ODKCl control group)/(ODDMSO control group−ODKCl control group))]*100. [Equation 1]
IC50 was obtained by nonlinear regression analysis of GraphPad Prism7 program using % inhibition values for each concentration, and results thereof are shown in Table 2 below.

[3] = target: T1, proton pump (H+/K+-ATPase); assay: Reversibility of proton pump inhibition by jump dilution method; format: biochemical, pig; settings: 0.2 μM compound
Method: In addition, in order to confirm the reversibility of the inhibition ability on the proton pump (H^+/K^+-ATPase) of the prepared compound, an experiment was performed by the jump dilution method. 6.25 μg of gastric vesicles isolated from pig stomach and 0.2 μM of each compound were pre-incubated for 120 minutes, and then the enzyme activity before dilution and the enzyme activity after 50-fold dilution were compared for each reaction time, and the reversibility was evaluated. In both Example 1 and Example 3, the inhibition ability of 50% or more was confirmed after 20 minutes of the reaction. On the other hand, when the reaction was performed for 60 minutes after the 50-fold dilution, in both Examples 1 and 3, the enzyme activity was recovered to 90% or more, and reversible results were confirmed.

[4] = target: T1, proton pump (H+/K+-ATPase); assay: Proton pump (H+/K+-ATPase) inhibitory activity depending on pH; format: biochemical, pig
Method: as §1, with “1: […]” for “1:”
In order to measure the change in proton pump (H+/K+-ATPase) inhibitory activity depending on the pH of the prepared compound, an experiment was performed in the same manner as in Test Example 1 under three conditions of pH 6.5, pH 7.0, and pH 7.5.

human SSTR4 = human SSTR4 (Homo sapiens, UniProt P31391); assay: SSTR4 agonist effect (cell-based cAMP functional assay, HTRF); settings: CHO cells stably expressing human SSTR4, 37° C. 30 minutes, vs sst-14 10 nM
Method: The agonism effect on SSTR4 was confirmed by cell-based cAMP functional assay. CHO cells in which human SSTR4 was stably expressed were treated with test substances for each concentration and reacted at 37° C. for 30 minutes, and an amount of the produced cAMP was measured by the HTRF detection method. The % response compared to the reference control agonist (sst-14, 10 nM) was calculated, and the EC50 was calculated through the concentration-response curve.

[5] = test system: basal gastric acid secretion; assay: Inhibition of basal gastric acid secretion in pylorus-ligated rat (Shay's rat model); format: in vivo; settings: SD rats, 10 mg/kg oral 1 h before pylorus ligation, 5 hours after ligation
Method: The inhibitory efficacy of the prepared compound on basal gastric acid secretion was measured by employing the Shay's rat model [Shay H, et al., Gastroenterology, 1945, 5, 43˜61].
Male Sprague Dawley (SD) rats were divided into 8 rats per group, and fasted with only water supply for 24 hours. Then, one hour before pylorus ligation, the control group was orally administered with 0.5% methylcellulose solution, and the other groups were orally administered with the Example compound at a dose of 10 mg/10 mL/kg suspended in 0.5% methylcellulose solution.
After 5 hours of ligation, the rats were sacrificed under Zoletil and Xylazine anesthesia, and the gastric contents were enucleated by incision of the abdominal cavity. The obtained contents were centrifuged at 3,000 rpm for 10 minutes to separate only the supernatant, and gastric juice was collected. 1 mL of the collected gastric juice was taken into a beaker and the pH was measured using an electrode pH meter. To 1 mL of gastric juice, 0.03 mL each of 0.5% dimethylaminoazobenzene alcohol solution and 1% phenolphthalein alcohol solution was added to make red color, and then 0.1N NaOH solution was added, wherein the volume until the rose tint appeared was determined as the total acidity, and the total acid output was obtained by multiplying the acidity of gastric juice by the amount of gastric juice. The % inhibitory activity of the Example compound was calculated according to the following Equation 2, and results thereof are shown in Table 6 below.
% inhibitory activity of Example compound=[(total gastric acid secretion in Control group−total gastric acid secretion in group treated with Example compound)/total gastric acid secretion in Control group]×100 [Equation 2]

[6] = Pharmacokinetic test in beagle dogs; format: in vivo; settings: blood, beagle dog; for bioavailability: oral 10 mg/kg vs intravenous 5 mg/kg, read-out: F (%) bioavailability; for AUC(0-inf): single oral dose 10 mg/kg
Method: (§2) The Example compound was dissolved in PBS containing 5% DMSO and 20% hydroxypropyl (HP) beta cyclodextrin, and administered intravenously to rats at a dose of 5 mg/kg, and the Example compound was suspended in distilled water containing 0.5% methylcellulose, and orally administered to rats at a dose of 10 mg/kg. The Example compound was dissolved in PBS containing 5% DMSO and 20% hydroxypropyl (HP) beta cyclodextrin, and administered intravenously to beagle dogs at a dose of 5 mg/kg, and the Example compound was suspended in distilled water containing 0.5% methylcellulose, and orally administered to beagle dogs at a dose of 10 mg/kg. Blood samples were collected at scheduled time points after the single intravenous and oral administration of the Example compound to normal rats and beagle dogs. Acetonitrile containing an internal standard material was added to the collected blood sample for protein precipitation. The sample extracted through protein precipitation was centrifuged, and then the supernatant was injected into LC-MS/MS to be subjected to quantitative analysis of the blood concentration of the Example compound. The AUC for each administration route was calculated based on the blood concentration-time profile obtained as a result above, and based on this, the bioavailability (F) upon oral administration was calculated.

[7] = Intragastric distribution test in rats; format: in vivo; settings: rat, oral 4 mg/kg, 1, 6, 12 and 24 hours
Method: After oral administration of the Example compound in normal rats, the intragastric distribution by time was measured as follows. The prepared compound was dissolved in distilled water containing 0.5% methylcellulose to 0.2 mg/mL, and then orally administered at a dosage of 4 mg/kg. Rats were sacrificed at 1 hour, 6 hours, 12 hours, and 24 hours after administration. Then, blood was exsanguinated through the heart and perfused with physiological saline, the gastric tissue was enucleated, weighed, and stored at −80° C. until the point of analysis. PBS buffer was added so that the ratio of gastric tissue weight to PBS buffer was 1:4, and the compound in gastric tissue was extracted using a homogenizer. The supernatant of the extract was taken and was subjected to protein precipitation using acetonitrile, and then an amount of the Example compound was measured using LC-MS/MS.

[8] = Pharmacokinetic test in rats; format: in vivo; settings: blood, rat; for bioavailability: oral 10 mg/kg vs intravenous 5 mg/kg, read-out: F (%) bioavailability; for AUC(0-inf): single oral dose 10 mg/kg
Method: as §2

[9] = after 20 minutes of the reaction, read-out: inhibition ability
[10] = reaction time 20 min, after 50-fold dilution, read-out: % Inhibition
[11] = reaction time 20 min, before dilution, read-out: % Inhibition
[12] = reaction time 60 min, after 50-fold dilution, read-out: % Inhibition
[13] = reaction time 60 min, before dilution, read-out: % Inhibition
[14] = reaction time 120 min, after 50-fold dilution, read-out: % Inhibition
[15] = reaction time 120 min, before dilution, read-out: % Inhibition

T1 sequence (P19156 2-1034 limits assumed): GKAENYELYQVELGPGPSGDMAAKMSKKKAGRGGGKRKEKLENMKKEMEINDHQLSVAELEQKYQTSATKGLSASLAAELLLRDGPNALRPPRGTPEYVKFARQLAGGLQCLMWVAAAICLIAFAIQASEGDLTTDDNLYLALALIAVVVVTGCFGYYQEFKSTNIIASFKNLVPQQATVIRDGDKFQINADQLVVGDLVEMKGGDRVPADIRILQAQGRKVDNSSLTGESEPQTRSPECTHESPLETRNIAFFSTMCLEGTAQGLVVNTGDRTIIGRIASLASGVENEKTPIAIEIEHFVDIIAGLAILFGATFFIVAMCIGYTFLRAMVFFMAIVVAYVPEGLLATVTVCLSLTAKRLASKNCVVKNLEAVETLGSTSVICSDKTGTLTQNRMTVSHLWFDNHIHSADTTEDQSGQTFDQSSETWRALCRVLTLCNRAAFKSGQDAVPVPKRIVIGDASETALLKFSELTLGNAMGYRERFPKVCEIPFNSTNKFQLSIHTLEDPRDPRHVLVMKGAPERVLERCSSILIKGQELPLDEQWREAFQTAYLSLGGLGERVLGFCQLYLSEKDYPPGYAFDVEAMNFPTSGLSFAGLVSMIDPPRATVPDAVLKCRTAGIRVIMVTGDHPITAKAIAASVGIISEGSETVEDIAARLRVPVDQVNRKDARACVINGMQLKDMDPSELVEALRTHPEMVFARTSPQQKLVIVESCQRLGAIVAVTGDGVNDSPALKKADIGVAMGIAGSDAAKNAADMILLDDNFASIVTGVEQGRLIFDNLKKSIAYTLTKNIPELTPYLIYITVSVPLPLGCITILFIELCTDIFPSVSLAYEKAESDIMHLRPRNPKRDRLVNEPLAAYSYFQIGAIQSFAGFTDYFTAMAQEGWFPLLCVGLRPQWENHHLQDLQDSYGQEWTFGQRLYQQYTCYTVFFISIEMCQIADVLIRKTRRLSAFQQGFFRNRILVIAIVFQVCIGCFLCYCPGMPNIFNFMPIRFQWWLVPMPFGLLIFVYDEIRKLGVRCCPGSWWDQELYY
T1 sequence (P18434 whole entry partner): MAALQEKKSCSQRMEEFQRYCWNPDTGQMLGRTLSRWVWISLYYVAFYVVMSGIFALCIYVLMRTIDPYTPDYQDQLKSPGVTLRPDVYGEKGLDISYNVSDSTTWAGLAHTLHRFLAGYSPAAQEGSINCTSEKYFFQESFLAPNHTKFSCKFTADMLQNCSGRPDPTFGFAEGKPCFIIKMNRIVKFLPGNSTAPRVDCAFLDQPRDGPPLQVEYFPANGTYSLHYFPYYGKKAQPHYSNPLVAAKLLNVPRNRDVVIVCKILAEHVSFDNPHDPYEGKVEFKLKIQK
human SSTR4, sequence (P31391 whole entry): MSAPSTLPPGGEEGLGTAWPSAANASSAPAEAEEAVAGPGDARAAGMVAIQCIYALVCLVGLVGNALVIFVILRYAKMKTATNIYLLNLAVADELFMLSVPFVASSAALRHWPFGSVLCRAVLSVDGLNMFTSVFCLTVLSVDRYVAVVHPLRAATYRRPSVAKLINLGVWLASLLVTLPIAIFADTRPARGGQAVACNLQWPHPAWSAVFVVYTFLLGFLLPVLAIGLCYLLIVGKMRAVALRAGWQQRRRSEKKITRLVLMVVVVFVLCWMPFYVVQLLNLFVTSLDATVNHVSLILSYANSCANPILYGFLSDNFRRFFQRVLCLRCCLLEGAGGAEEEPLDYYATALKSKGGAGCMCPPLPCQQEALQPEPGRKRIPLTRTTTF

IC50 [2] [nM]	inhibition at 0.2 µM [3, 9] [%]	inhibition at 0.2 µM [3, 10] [%]	inhibition at 0.2 µM [3, 11] [%]	inhibition at 0.2 µM [3, 12] [%]	inhibition at 0.2 µM [3, 13] [%]	inhibition at 0.2 µM [3, 14] [%]	inhibition at 0.2 µM [3, 15] [%]	IC50 ([4]; pH 6.5) [nM]	IC50 ([4]; pH 7.0) [nM]	IC50 ([4]; pH 7.5) [nM]	EC50 (human SSTR4) [nM]	bioavailability [6] [%]	AUC(0-inf) [6] [ng·h/mL]	bioavailability [8] [%]	AUC(0-inf) [8] [ng·h/mL]	SMILES	Inhibitory Activity (%) on ratio of gastric damaged area [1]	Inhibitory Activity (%) on total gastric acid secretion [5]	pH of gastric juice [5]	also measured
≤ 300	≥ 50	20 to 50	≥ 50	< 20	≥ 50	< 20	≥ 50	≤ 100	≤ 100	100 to 1000	780	71.7	10200	22	253	CNCc1cn(S(=O)(=O)c2ccc(OC)nc2)c(-c2ccccc2F)c1OC [Example 1, 1-(5-(2-Fluorophenyl)-4-methoxy-1-((6-methoxypyridin-3-yl)sulfonyl)-1H-pyrrol-3-yl)-N-methylmethanamine]	+++ (97% or more: +++)	+++ (90% or more: +++)	8.25 ± 0.16	concentration in the stomach versus in vitro H+/K+ ATPase IC50 [7]: exceeded ICH of the in vitro H^+/K^+ ATPase inhibition assay at all time points
≤ 300																CNCc1cn(S(=O)(=O)c2ccc(OC)nc2)c(-c2ccc(F)cc2F)c1OC [Example 2, 1-(5-(2,4-Difluorophenyl)-4-methoxy-1-((6-methoxypyridin-3-yl)sulfonyl)-1H-pyrrol-3-yl)-N-methylmethanamine]		+++ (90% or more: +++)	8.04 ± 0.16	
≤ 300	≥ 50	20 to 50	≥ 50	< 20	≥ 50	< 20	≥ 50	≤ 100	100 to 1000	100 to 1000	3900	83.8	14500	27.3	275	CNCc1cn(S(=O)(=O)c2ccc(C)nc2)c(-c2ccc(F)cc2F)c1OC [Example 3, 1-(5-(2,4-Difluorophenyl)-4-methoxy-1-((6-methylpyridin-3-yl)sulfonyl)-1H-pyrrol-3-yl)-N-methylmethanamine]	+++ (97% or more: +++)	+++ (90% or more: +++)	8.08 ± 0.24	inhibition ability depending on pH ([4]; pH 6.5, pH 7.0, pH 7.5 compared): higher inhibition ability in a weakly acidic condition compared to a neutral condition
≤ 300																CNCc1cn(S(=O)(=O)c2ccc(C)nc2)c(-c2ccccc2F)c1OC [Example 4, 1-(5-(2-Fluorophenyl)-4-methoxy-1-((6-methylpyridin-3-yl)sulfonyl)-1H-pyrrol-3-yl)-N-methylmethanamine]				
